These results are taken from patent publication US7309484B2, “Compositions and methods for screening antibacterial compounds” (priority 2003, dated 2007).

Bridge positions count the residues as written; N and C are the ends. Square brackets hold non-standard residues; d marks the D form. Peptide text beside a SMILES is read from it. * marks the point of attachment. Ileψ(thiazoline)Cys = CC[C@H](C)[C@H](N)C1=N[C@H](C(=O)*)CS1; dOrn = NCCC[C@@H](N)C(=O)O

In this assay the test system is liaI expression (pMUTIN-derived lacZ fusion, strain BFS2470). As to the kind of experiment: microbe, parasite or virus in culture. The conditions noted are these: Bacillus subtilis, 0.5 h, read-out: fold induction of liaI expression. The protocol: Disc-diffusion assays were used to determine the spectrum of stimuli that induce the expression of liaIH. The B. subtilis strains BFS2469 and BFS2470 (Table 2), harboring pMUTIN-insertions in liaH and liaI respectively, were plated on a medium containing the indicator dye X-gal and overlaid with filter disks impregnated with various antibiotics that interfere with cell wall biosynthesis. Specifically, cultures of B. subtilis strain BFS2469 (liaH::pMUTIN) and BFS2470 (liaI::pMUTIN) were grown in LB medium to midlog phase, 2 mL for the un-induced control sample were harvested, and the remaining culture was induced with the three antibiotics for 30 minutes, before the cells of the induced sample were harvested. All samples were taken in duplicate from two independent cultures and the standard deviation is indicated by error bars.
Measurement of induction by β-galactosidase assays: Cells were inoculated from fresh overnight LB-plates and grown in LB-medium at 37° C. with aeration until they reached an O.D.600=0.45. 2 mL of cultures were harvested (un-induced control) and the cell pellets were shock frozen and kept at −70° C. The cultures were induced by addition of antibiotics to a final concentration of: bacitracin (100 μg/mL), tunicamycin (50 μg/mL) or vancomycin (2 μg/mL) and incubated for additional 30 min at 37° C. 2 mL of the cultures were harvested as described above (induced sample). The pellets were re-suspended in 1 mL of working buffer and assayed for β-galactosidase activity as described with normalization to cell density (Miller, 1972, the entire teaching of which is incorporated herein by reference).
For quantitative measurements of β-galactosidase activity, cells were inoculated from fresh overnight LB-plates and grown in LB medium at 37 YC with aeration until they reached an OD600 of 0.45. 2 ml of the culture was harvested (un-induced control) and the cell pellets were frozen and kept at −80 YC. The cultures were induced by addition of the compound to be tested to the final concentration as described in the individual figure legends and incubated for an additional 30 min at 37 YC. 2 ml of the cultures were harvested as described above. The pellets were re-suspended in 1 ml of working buffer (60 mM Na2HPO4, 40 mMNaH2PO4, 10 mM KCl, 1 mM MgSO4, 4 mM DTT) and assayed for β-galactosidase activity as described with normalization to cell density Kobayashi, K., et al., 2001, J Bacteriol 183:7365-7370). […] A sample was taken after 30 min for β-galactosidase assay and the turbidity of the remaining culture was measured for at least 5 hours to monitor the concentration-dependent effects of the antibiotics on cell growth.

Regarding `CC[C@H](C)[C@H](N)C1=N[C@H](C(=O)N[C@@H](CC(C)C)C(=O)N[C@H](CCC(=O)O)C(=O)N[C@H](C(=O)N[C@H]2CCCCNC(=O)[C@H](CC(N)=O)NC(=O)[C@@H](CC(=O)O)NC(=O)[C@H](Cc3cnc[nH]3)NC(=O)[C@@H](Cc3ccccc3)NC(=O)[C@H]([C@@H](C)CC)NC(=O)[C@@H](CCCN)NC2=O)[C@@H](C)CC)CS1` [Bacitracin] ({Ileψ(thiazoline)Cys}-L[dE]IK[dOrn]I[dF]H[dD]N; lactam 4-C), the fold induction at 100 µg/mL was above 500.
